According to patent US20260337211A1, “IP5 SUBSTITUTED COMPOUNDS” (SANIFIT THERAPEUTICS, S.A., priority 2022, published 2026):
Where a name gives a salt, the structure may show the parent alone.

Assay: In vitro inhibition of calcium phosphate crystallization in human plasma (spectrophotometric, 550 nm)
Assay type: biochemical
Settings: 0-100 μM compound, 1.5 mM phosphate and 12.5 mM calcium, pH 7.4, 30 min at rt, slope between 6 and 24 min, 30 min, read-out: Relative Potency (EC50)
Method: The in vitro efficacy of the IP5 substituted compounds (e.g., Compounds 1 to 32) of the invention on the inhibition of calcium phosphate crystallization in human plasma samples was evaluated according to a spectrophotometric assay previously described in the art (Ferrer M, et al., Sci Rep 2017; 7:6858, doi:10.1038/s41598-017-07203-x).
A 96-well plate was employed. Plasma was spiked (1 volume of the IP5 substituted compounds of the invention per 19 volumes of plasma) with increasing concentrations of the derivatives in the range of 0-100 μM. Plasma was then centrifuged at 10,000 g at rt and subsequently mixed with a mixture of 5 mM hydrogen phosphate and 41.67 mM calcium to attain final concentrations of 1.5 mM phosphate and 12.5 mM calcium, respectively. All reagent solutions were filtered, and pH adjusted to 7.4.
Crystallization of calcium phosphate was monitored spectrophotometrically for 30 min at rt by measuring the increments in absorbance at 550 nm using the Biotek Powerwave XS Microplate spectrophotometer (BioTek Instruments, Inc., Winooski, VT, US). The plate was incubated at rt in an orbital shaker and absorbance measured every 3 min.
Plasma crystallization was assessed based on slope measurement in the linear range between 6 and 24 min from plots of increase in absorbance versus logarithm of time. The efficacy of different myo-inositol phosphates derivatives in preventing in vitro formation of calcium phosphate crystals was assessed in human plasma samples using the slopes obtained between 6- and 24-min. Inhibition of crystallization was measured by comparing the slopes of the control sample (blank plasma) with those of samples containing the inhibitor as shown below: […]

Row | Molecule | EC50
1 | O=P(O)(O)OC1C(OCCCCCC(F)(F)F)C(OP(=O)(O)O)C(OP(=O)(O)O)C(OP(=O)(O)O)C1OP(=O)(O)O (racemic) [Compound 50, rac-1-O-(6,6,6-Trifluorohexyl)-myo-inositol-2,3,4,5,6-pentakis(phosphate) decasodium salt] | 5 to 10 µM
2 | O=P(O)(O)OC1C(OCCCCCC(F)(F)F)C(OP(=O)(O)O)C(OP(=O)(O)O)C(OP(=O)(O)O)C1OP(=O)(O)O (stereo not shown) [Compound 36, 2-O-(6,6,6-Trifluorohexyl)-myo-inositol-1,3,4,5,6-pentakis(phosphate) decasodium salt] | ≤ 5 µM

Same assay, conditions: 0-100 μM compound, 1.5 mM phosphate and 12.5 mM calcium, pH 7.4, 30 min at rt, slope between 6 and 24 min, read-out: Relative Potency (EC50)

Row | Molecule | EC50
3 | 2-O-(5-(4-(Methoxymethyl)-1H-1,2,3-triazol-1-yl)pentyl)-myo-inositol-1,3,4,5,6-pentakis(phosphate) decasodium [Compound 41] | > 10 µM
4 | 2-O-(5-Acetamidopentyl)-myo-inositol-1,3,4,5,6-pentakis(phosphate) decasodium salt [Compound 35] | > 10 µM
5 | 2-O-(5-Methoxypentyl)-myo-inositol-1,3,4,5,6-pentakis(phosphate) decasodium salt [Compound 7] | 5 to 10 µM
6 | 2-O-(19-methoxynonadecyl)-myo-inositol-1,3,4,5,6-pentakis(phosphate) decasodium salt [Compound 9] | > 10 µM
7 | 2-O-((1-(2-Carboxyethyl)-1H-1,2,3-triazol-4-yl)methyl)-myo-inositol-1,3,4,5,6-pentakis(phosphate) undecasodium salt [Compound 42] | 5 to 10 µM
8 | 2-O-Pentyl-myo-inositol-1,3,4,5,6-pentakis(phosphate) decasodium salt [Compound 6] | ≤ 5 µM
9 | 2-O-Propargyl-myo-inositol-1,3,4,5,6-pentakis(phosphate) decasodium salt [Compound 43] | 5 to 10 µM
10 | 5-O-(2-Cyclopropylethyl)-myo-inositol-1,2,3,4,6-pentakis(phosphate) decasodium salt [Compound 30] | 5 to 10 µM
11 | 5-O-(6,6,6-Trifluorohexyl)-myo-inositol-1,2,3,4,6-pentakis(phosphate) decasodium salt [Compound 45] | 5 to 10 µM
12 | 5-O-(9-Methoxynonyl)-myo-inositol-1,2,3,4,6-pentakis(phosphate) decasodium salt [Compound 31] | 5 to 10 µM
13 | 5-O-(9-Methoxypentyl)-myo-inositol-1,2,3,4,6-pentakis(phosphate) decasodium salt [Compound 44] | 5 to 10 µM
14 | 5-O-Propyl-myo-inositol-1,2,3,4,6-pentakis(phosphate) decasodium salt [Compound 29] | 5 to 10 µM
15 | Cc1ccc(CCCOC2C(OP(=O)(O)O)C(OP(=O)(O)O)C(OP(=O)(O)O)C(OP(=O)(O)O)C2OP(=O)(O)O)cc1 (racemic) [Compound 11, rac-4-O-(3-(p-Tolyl)propyl)-myo-inositol-1,2,3,5,6-pentakis(phosphate) decasodium salt] | 5 to 10 µM
16 | CC(C)CCCOC1C(OP(=O)(O)O)C(OP(=O)(O)O)C(OP(=O)(O)O)C(OP(=O)(O)O)C1OP(=O)(O)O (racemic) [Compound 12, rac-4-O-(4-Methylpentyl)-myo-inositol-1,2,3,5,6-pentakis(phosphate) decasodium salt] | 5 to 10 µM
17 | COc1ccc(CCCOC2C(OP(=O)(O)O)C(OP(=O)(O)O)C(OP(=O)(O)O)C(OP(=O)(O)O)C2OP(=O)(O)O)cc1 (racemic) [Compound 14, rac-4-O-(3-(4-Methoxyphenyl)propyl)-myo-inositol-1,2,3,5,6-pentakis(phosphate) decasodium salt] | ≤ 5 µM
18 | O=P(O)(O)OC1C(OCCCc2cccc(C(F)(F)F)c2)C(OP(=O)(O)O)C(OP(=O)(O)O)C(OP(=O)(O)O)C1OP(=O)(O)O (racemic) [Compound 15, rac-4-O-(3-(3-(Trifluoromethyl)phenyl)propyl)-myo-inositol-1,2,3,5,6-pentakis(phosphate) decasodium salt] | 5 to 10 µM

Row | Molecule | EC50
19 | O=P(O)(O)OC1C(OCCC2CCCC2)C(OP(=O)(O)O)C(OP(=O)(O)O)C(OP(=O)(O)O)C1OP(=O)(O)O (racemic) [Compound 16, rac-4-O-(2-Cyclopentylethyl)-myo-inositol-1,2,3,5,6-pentakis(phosphate) decasodium salt] | ≤ 5 µM
20 | O=P(O)(O)OC1C(OCCC2CC2)C(OP(=O)(O)O)C(OP(=O)(O)O)C(OP(=O)(O)O)C1OP(=O)(O)O (racemic) [Compound 17, rac-4-O-(2-Cyclopropylethyl)-myo-inositol-1,2,3,5,6-pentakis(phosphate) decasodium salt] | 5 to 10 µM
21 | O=P(O)(O)OC1C(OCCCCCn2cccn2)C(OP(=O)(O)O)C(OP(=O)(O)O)C(OP(=O)(O)O)C1OP(=O)(O)O (racemic) [Compound 18, rac-4-O-(5-(1H-Pyrazol-1-yl)pentyl)-myo-inositol-1,2,3,5,6-pentakis(phosphate) decasodium salt] | 5 to 10 µM
22 | O=C(O)CCc1cn(CCCOC2C(OP(=O)(O)O)C(OP(=O)(O)O)C(OP(=O)(O)O)C(OP(=O)(O)O)C2OP(=O)(O)O)nn1 (racemic) [Compound 25, rac-4-O-(3-(4-(2-carboxyethyl)-1H-1,2,3-triazol-1-yl)propyl)-myo-inositol-1,2,3,5,6-pentakis(phosphate) undecasodium salt] | > 10 µM
23 | NCCCOC1C(OP(=O)(O)O)C(OP(=O)(O)O)C(OP(=O)(O)O)C(OP(=O)(O)O)C1OP(=O)(O)O (racemic) [Compound 27, rac-4-O-(3-Aminopropyl)-myo-inositol-1,2,3,5,6-pentakis(phosphate) decasodium salt] | ≤ 5 µM
24 | NC(=O)CCCCCOC1C(OP(=O)(O)O)C(OP(=O)(O)O)C(OP(=O)(O)O)C(OP(=O)(O)O)C1OP(=O)(O)O (racemic) [Compound 33, rac-4-O-(6-Amino-6-oxohexyl)-myo-inositol-1,2,3,5,6-pentakis(phosphate) decasodium salt] | ≤ 5 µM
25 | O=P(O)(O)OC1C(OCCC2CCCC2)C(OP(=O)(O)O)C(OP(=O)(O)O)C(OP(=O)(O)O)C1OP(=O)(O)O (racemic) [Compound 51, rac-1-O-(2-Cyclopentylethyl)-myo-inositol-2,3,4,5,6-pentakis(phosphate) decasodium salt] | ≤ 5 µM
26 | COCCCCCCCCCO[C@H]1[C@@H](OP(=O)(O)O)[C@H](OP(=O)(O)O)[C@@H](OP(=O)(O)O)[C@H](OP(=O)(O)O)[C@H]1OP(=O)(O)O [Compound 8, 2-O-(9-Methoxynonyl)-myo-inositol-1,3,4,5,6-pentakis(phosphate) decasodium salt] | 5 to 10 µM
27 | COCCCCCCCCCCCCCCCCCCCCCCCCCCCCCO[C@H]1[C@@H](OP(=O)(O)O)[C@H](OP(=O)(O)O)[C@@H](OP(=O)(O)O)[C@H](OP(=O)(O)O)[C@H]1OP(=O)(O)O [Compound 10, 2-O-(29-methoxynonacosyl)-myo-inositol-1,3,4,5,6-pentakis(phosphate) decasodium salt] | ≤ 5 µM
28 | CCCOC1C(OP(=O)(O)O)C(OP(=O)(O)O)C(OP(=O)(O)O)C(OP(=O)(O)O)C1OP(=O)(O)O (stereo not shown) [Compound 34, 2-O-Propyl-myo-inositol-1,3,4,5,6-pentakis(phosphate) decasodium salt] | 5 to 10 µM
29 | NC(=O)CCCCCO[C@H]1[C@@H](OP(=O)(O)O)[C@H](OP(=O)(O)O)[C@@H](OP(=O)(O)O)[C@H](OP(=O)(O)O)[C@H]1OP(=O)(O)O [Compound 37, 2-O-(6-Amino-6-oxohexyl)-myo-inositol-1,3,4,5,6-pentakis(phosphate) decasodium salt] | 5 to 10 µM
30 | O=P(O)(O)O[C@@H]1[C@@H](OP(=O)(O)O)[C@H](OP(=O)(O)O)[C@H](OCCC2CCCC2)[C@H](OP(=O)(O)O)[C@H]1OP(=O)(O)O [Compound 38, 2-O-(2-Cyclopentylethyl)-myo-inositol-1,3,4,5,6-pentakis(phosphate) decasodium salt] | 5 to 10 µM
31 | O=P(O)(O)OC1C(OCCC2CC2)C(OP(=O)(O)O)C(OP(=O)(O)O)C(OP(=O)(O)O)C1OP(=O)(O)O (stereo not shown) [Compound 39, 2-O-(2-Cyclopropylethyl)-myo-inositol-1,3,4,5,6-pentakis(phosphate) decasodium salt] | 5 to 10 µM
32 | O=P(O)(O)OC1C(OCCCCCO)C(OP(=O)(O)O)C(OP(=O)(O)O)C(OP(=O)(O)O)C1OP(=O)(O)O (stereo not shown) [Compound 40, 2-O-(5-Hydroxypentyl)-myo-inositol-1,3,4,5,6-pentakis(phosphate) decasodium salt] | 5 to 10 µM
33 | COCc1cn(CCCCCOC2C(OP(=O)(O)O)C(OP(=O)(O)O)C(OP(=O)(O)O)C(OP(=O)(O)O)C2OP(=O)(O)O)nn1 (stereo not shown) [Compound 46, 5-O-(5-(4-(Methoxymethyl)-1H-1,2,3-triazol-1-yl)pentyl)-myo-inositol-1,2,3,4,6-pentakis(phosphate) decasodium salt] | > 10 µM
34 | rac-1-O-(2-Cyclopropylethyl)-myo-inositol-2,3,4,5,6-pentakis(phosphate) decasodium salt [Compound 48] | ≤ 5 µM
